Experiments:
[1] = test system: response time to radiated heat focused on the tail (rat tail flick); test: Rat Tail Flick Test; format: in vivo, male, Sprague-Dawley rats; settings: for average response time, 1 Hr. / Activity - Increase in Response Time (2 Hrs.) / average response time, 2 Hrs. / average response time, 3 Hrs.: p.o.
Description: In this test, groups of 10 male, Sprague-Dawley rats, weighing 142-170 g. were orally (p.o.) gavaged with compound (V) after the average normal response time to radiated heat focused on the tail had been established by two trials. Response times were recorded hourly for 3 hours after the administration of the compound. The activity was determined as the percent increase in response time over the average normal response for the response for the respective group. An ED50 value representing the dose producing a 50% increase in average response time was calculated by a linear regression program.

[2] = test system: acetic acid writhing response; test: Mouse (Acetic Acid) Writhing Test; format: in vivo, female, ICR mice; settings: for Activity % Inhibition / Ave. Number of Writhes (20 min.): p.o., one hour before acetic acid; for Ave. Number of Writhes (20 min.): controls 55.0
Description: In this test, groups of 5 female, ICR mice (Schmidt) weighing 19-25 g. were orally (p.o.) gavaged with compound (V) one hour prior to the intraperitoneal injection of 0.4 ml. of acetic acid 0.5% (v/v). Five minutes after the acid injection, the number of writhing responses over a 20 minute period were counted. One group received an oral dose of vehicle only to serve as controls. Activity was determined as the percent difference (inhibition) between the average number of writhes for the test groups as compared to the controls. An ED50 value representing the dose producing a 50% inhibition of the writhing response was calculated by a linear regression program.

[3] = test system: methamphetamine-induced hyperactivity in rats; test: Rat Desoxyn Antagonism Test; format: in vivo; settings: methamphetamine 1 mg./kg., i.p.
Description: In this test, the antagonism or potentiation of methamphetamine-induced hyperactivity in rats was evaluated in motor activity chambers equipped with photocells (Lehigh Valley, Model #1497). Groups of rats were premedicated with Compound (V) and then administered methamphetamine (1 mg./kg., i.p.). One rat was placed in each chamber and three rats were used per test dose. Effect was recorded as percent change in counts from the photocells compared to methamphetamine-treated controls.

## CC(CCCc1ccc(F)cc1)c1cc(O)c2c(c1)OC(C)(C)C1=C2CN(CC(=O)NC(N)=O)CC1 (centres unmarked) [Compound V, {{8-[5-(4-Fluorophenyl)-2-pentyl]-10-hydroxy-5,5-dimethyl-1,2,3,4-tetrahydro-5H-[1]benzopyrano[4,3-c]pyridin-2-yl}acetyl}urea]
[1]; 1.0 mg./kg., Normal 8.03
  average response time, 1 Hr.: 9.03 s
  average response time, 3 Hrs.: 11.22 s
[1]; 1.0 mg./kg., 2 hrs
  Activity - Increase in Response Time (2 Hrs.): 30.0%
[1]; 1.0 mg./kg., 2 hrs, Normal 8.03
  average response time, 2 Hrs.: 10.44 s
[1]; 2.0 mg./kg., Normal 6.80
  average response time, 1 Hr.: 8.92 s
  average response time, 3 Hrs.: 10.99 s
[1]; 2.0 mg./kg., 2 hrs
  Activity - Increase in Response Time (2 Hrs.): 56.0%
[1]; 2.0 mg./kg., 2 hrs, Normal 6.80
  average response time, 2 Hrs.: 10.61 s
[1]; 4.0 mg./kg., Normal 8.30
  average response time, 1 Hr.: 11.13 s
[1]; 4.0 mg./kg., 2 hrs
  Activity - Increase in Response Time (2 Hrs.): 95.2%
[1]; 4.0 mg./kg., 2 hrs, Normal 8.30
  average response time, 2 Hrs.: 16.20 s
[1]; 4.0 mg./kg., Normal 8.30, average includes maximum values (30 seconds cut-off time)
  average response time, 3 Hrs.: 16.98 s
[1]; 8.0 mg./kg., Normal 7.97, average includes maximum values (30 seconds cut-off time)
  average response time, 1 Hr.: 13.63 s
[1]; 8.0 mg./kg., 2 hrs
  Activity - Increase in Response Time (2 Hrs.): 98.6%
[1]; 8.0 mg./kg., 2 hrs, Normal 7.97, average includes maximum values (30 seconds cut-off time)
  average response time, 2 Hrs.: 15.83 s
[1]; 8.0 mg./kg., Normal 7.97
  average response time, 3 Hrs.: 14.32 s
[1]; Rattus norvegicus, po, 2 hrs, dose producing 50% increase in average response time, linear regression, (0.02, 3.19) printed after value
  ED50: 1.6 mg/kg
[2]; 0.5 mg./kg.
  Activity % Inhibition: 48.4%
  Ave. Number of Writhes (20 min.): 28.4
[2]; 1.0 mg./kg.
  Activity % Inhibition: 50.2%
  Ave. Number of Writhes (20 min.): 27.4
[2]; 2.0 mg./kg.
  Activity % Inhibition: 72.4%
  Ave. Number of Writhes (20 min.): 15.2
[2]; 4.0 mg./kg.
  Activity % Inhibition: 89.1%
  Ave. Number of Writhes (20 min.): 6.0
[2]; Mus musculus, po, dose producing 50% inhibition of writhing response, linear regression, (0.4, 1.0) printed after value
  ED50: 0.7 mg/kg
[3]; oral dose 5 mg./kg.
  % Decreased Activity Over Control: 75%
[3]; oral dose 20 mg./kg.
  % Decreased Activity Over Control: 93%
[3]; oral dose 80 mg./kg.
  % Decreased Activity Over Control: 84%

From US4172943A, “(8-Substituted-10-hydroxy-5,5-dimethyl-1,2 ,3,4-tetrahydro-5H-(1)benzopyrano(4,3-C)pyridin-2-yl)acetyl ureas and derivatives” (Abbott Laboratories, priority 1978, dated 1979)
